Read-outs that look alike come from different tables or passages of the source.
Biological target: T1, SIRT1 (Homo sapiens, UniProt Q96EB6)
T1 sequence (Q96EB6 1-747): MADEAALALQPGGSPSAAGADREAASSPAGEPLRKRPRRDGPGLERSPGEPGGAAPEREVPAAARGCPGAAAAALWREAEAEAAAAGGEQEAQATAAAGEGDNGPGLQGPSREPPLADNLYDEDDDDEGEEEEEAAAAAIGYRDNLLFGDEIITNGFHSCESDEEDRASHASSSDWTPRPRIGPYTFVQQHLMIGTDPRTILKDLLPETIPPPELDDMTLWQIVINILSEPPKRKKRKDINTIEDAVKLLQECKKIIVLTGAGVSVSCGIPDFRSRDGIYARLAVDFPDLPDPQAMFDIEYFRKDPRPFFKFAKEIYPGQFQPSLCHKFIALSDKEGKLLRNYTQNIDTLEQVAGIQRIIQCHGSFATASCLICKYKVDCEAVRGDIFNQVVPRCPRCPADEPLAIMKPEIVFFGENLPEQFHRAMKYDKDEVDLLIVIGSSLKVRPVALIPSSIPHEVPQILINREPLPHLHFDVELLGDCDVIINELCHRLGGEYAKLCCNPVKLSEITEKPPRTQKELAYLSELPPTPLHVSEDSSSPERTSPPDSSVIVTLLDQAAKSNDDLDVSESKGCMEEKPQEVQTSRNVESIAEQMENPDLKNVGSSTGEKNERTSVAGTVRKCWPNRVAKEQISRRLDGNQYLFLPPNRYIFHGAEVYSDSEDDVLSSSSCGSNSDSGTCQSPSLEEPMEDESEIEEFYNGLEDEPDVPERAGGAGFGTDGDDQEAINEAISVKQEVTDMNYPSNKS
Test: TAMRA based mass spectrometry assay of SIRT1 activity
Type: biochemical
Settings: for TAMRA EC1.5 / TAMRA EC1.5 (μM): concentration giving 150% activation of SIRT1; for Emax: percent maximum fold activation, read-out: TAMRA % Fold Act
Method in brief: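 Recombinant N-terminal His-tagged human SIRT1 (10 nM, E. coli) incubated 25 min at 25 °C with 0.5 μM 5TMR-labelled p53-derived acetyl-peptide and 120 μM βNAD+ in Tris-acetate pH 8 buffer with DTT and 0.05% BSA, compound at varying concentrations. Stopped with formic acid; deacetylated peptide or OAADPR measured by mass spectrometry relative to DMSO controls.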

| Compound | TAMRA EC1.5 (TAMRA peptide substrate) | Emax (TAMRA peptide substrate) [%] | TAMRA EC1.5 (μM) (TAMRA assay) | Emax (TAMRA assay) [%] |
| --- | --- | --- | --- | --- |
| Cc1nc(C(=O)Nc2cnn3ccc(-c4ccccc4C(F)(F)F)nc23)c(C)s1 [Compound 526] | A (EC1.5<1 μM) | ≥ 350 |  |  |
| O=C(Nc1ccncc1)c1cnn2ccc(-c3ccccc3OC(F)(F)F)nc12 [Compound 531] | A (EC1.5<1 μM) | ≥ 350 |  |  |
| O=C(Nc1cnccn1)c1cnn2ccc(-c3ccccc3OC(F)(F)F)nc12 [Compound 532] | A (EC1.5<1 μM) | ≥ 350 |  |  |
| O=C(Nc1cccc(N2CCOCC2)n1)c1cnn2ccc(-c3ccccc3OC(F)(F)F)nc12 [Compound 534] | A (EC1.5<1 μM) | ≥ 350 |  |  |
| O=C(Nc1cccc(N2CC3(COC3)C2)n1)c1cnc2ccc(-c3ccccc3C(F)(F)F)nn12 [Compound 537] | A (EC1.5<1 μM) | ≥ 350 |  |  |
| O=C(Nc1cccc(N2CC3(CCO3)C2)n1)c1cnc2ccc(-c3ccccc3C(F)(F)F)nn12 [Compound 538] | A (EC1.5<1 μM) | ≥ 350 |  |  |
| Cc1nc2c(C)cc(-c3ccccc3C(F)(F)F)nn2c1C(=O)Nc1cccc(N2CC3(CCO3)C2)n1 [Compound 544] | A (EC1.5<1 μM) | ≥ 350 |  |  |
| Cc1nn2ccc(-c3ccccc3C(F)(F)F)nc2c1C(=O)Nc1ccccn1 [Compound 548] | A (EC1.5<1 μM) | ≥ 350 |  |  |
| Cc1nn2ccc(-c3ccccc3C(F)(F)F)nc2c1C(=O)Nc1cccc(CN2CCOCC2)n1 [Compound 550] | A (EC1.5<1 μM) | ≥ 350 |  |  |
| O=C(Nc1cccc(OC[C@H](O)CO)n1)c1cnc2ccc(-c3ccccc3C(F)(F)F)nn12 [Compound 553] | A (EC1.5<1 μM) | ≥ 350 |  |  |
| O=C(Nc1cccc(OC[C@@H](O)CO)n1)c1cnc2ccc(-c3ccccc3C(F)(F)F)nn12 [Compound 554] | A (EC1.5<1 μM) | ≥ 350 |  |  |
| O=C(Nc1cncc(OC[C@@H](O)CO)n1)c1cnc2ccc(-c3ccccc3C(F)(F)F)nn12 [Compound 556, (S)-N-(6-(2,3-dihydroxypropoxy)pyrazin-2-yl)-6-(2-(trifluoromethyl)phenyl)imidazo[1,2-b]pyridazine-3-carboxamide] | A (EC1.5<1 μM) | ≥ 350 |  |  |
| Cc1nc2c(C)cc(-c3ccccc3C(F)(F)F)nn2c1C(=O)Nc1cccc(N2CC3(COC3)C2)n1 [Compound 562] | A (EC1.5<1 μM) | ≥ 350 |  |  |
| O=C(Nc1cnn2ccc(-c3ccccc3C(F)(F)F)nc12)c1nccs1 [Compound 563] | A (EC1.5<1 μM) | ≥ 350 |  |  |
| O=C(Nc1cnc2ccc(N3CC[C@H](F)C3)nn12)c1ccccn1 [Compound 564] | B (EC1.5 1-25 μM) | < 350 |  |  |
| Cc1nn2ccc(-c3ccccc3C(F)(F)F)nc2c1NC(=O)c1ccccn1 [Compound 567, N-(2-methyl-5-(2-(trifluoromethyl)phenyl)pyrazolo[1,5-a]pyrimidin-3-yl)picolinamide] | B (EC1.5 1-25 μM) | < 350 |  |  |
| Cc1nn2ccc(-c3ccccc3C(F)(F)F)nc2c1NC(=O)c1cccc(CN2CCOCC2)n1 [Compound 573] | B (EC1.5 1-25 μM) | < 350 |  |  |
| Cc1nn2ccc(-c3ccccc3C(F)(F)F)nc2c1NC(=O)c1cccc(O)n1 [Compound 575] | C (EC1.5>25 μM) | < 350 |  |  |
| Cc1cc(C)nc(NC(=O)c2cnc3ccc(N4CCCC(C(F)(F)F)C4)nn23)c1 (stereo not shown) [Compound 579] | B (EC1.5 1-25 μM) | < 350 |  |  |
| O=C(Nc1cnn2ccc(-c3ccccc3OC(F)(F)F)nc12)c1ccccn1 [Compound 581] | A (EC1.5<1 μM) | ≥ 350 |  |  |
| O=C(Nc1cnn2ccc(-c3ccccc3OC(F)(F)F)nc12)c1cccnc1 [Compound 582] | B (EC1.5 1-25 μM) | < 350 |  |  |
| O=C(Nc1cnn2ccc(-c3ccccc3OC(F)(F)F)nc12)c1ccncn1 [Compound 585] | B (EC1.5 1-25 μM) | ≥ 350 |  |  |
| O=C(Nc1ccnc(N2CC3(CCO3)C2)n1)c1cnc2ccc(-c3ccccc3C(F)(F)F)nn12 [Compound 592] | A (EC1.5<1 μM) | ≥ 350 |  |  |
| Cc1cc(C)nc(NC(=O)c2cnn3ccc(-c4ccccc4OC(F)(F)F)nc23)c1 [Compound 605] |  |  | A (EC1.5<1 μM) | ≥ 350 |
| O=C(Nc1nccs1)c1cnn2ccc(-c3ccccc3OC(F)(F)F)nc12 [Compound 607] |  |  | B (EC1.5 1-25 μM) | < 350 |
| Cc1ccc(NC(=O)c2cnn3ccc(-c4ccccc4OC(F)(F)F)nc23)nc1 [Compound 608] |  |  | C (EC1.5>25 μM) | < 350 |
| Cc1cc(NC(=O)c2cnn3ccc(-c4ccccc4OC(F)(F)F)nc23)cc(C)n1 [Compound 611] |  |  | A (EC1.5<1 μM) | ≥ 350 |
| Cc1nccc(NC(=O)c2cnn3ccc(-c4ccccc4OC(F)(F)F)nc23)c1C [Compound 613] |  |  | A (EC1.5<1 μM) | < 350 |
| Cc1nc(NC(=O)c2cnn3ccc(-c4ccccc4OC(F)(F)F)nc23)sc1C [Compound 614] |  |  | A (EC1.5<1 μM) | ≥ 350 |
| Cc1cccc(NC(=O)c2cnn3ccc(-c4ccccc4OC(F)(F)F)nc23)n1 [Compound 617] |  |  | A (EC1.5<1 μM) | ≥ 350 |

The remaining lines, values ahead:

| TAMRA EC1.5 (TAMRA peptide substrate) | Emax (TAMRA peptide substrate) [%] | TAMRA EC1.5 (μM) (TAMRA assay) | Emax (TAMRA assay) [%] | Compound |
| --- | --- | --- | --- | --- |
| A (EC1.5<1 μM) | ≥ 350 |  |  | Cc1cc(NC(=O)c2cnc3c(C)cc(-c4ccccc4C(F)(F)F)nn23)cc(C)n1 [Compound 528] |
| A (EC1.5<1 μM) | ≥ 350 |  |  | Cc1cccc(NC(=O)c2cnc3c(C)cc(-c4ccccc4C(F)(F)F)nn23)n1 [Compound 539] |
| A (EC1.5<1 μM) | ≥ 350 |  |  | Cc1cc(NC(=O)c2cnc3c(C)cc(-c4ccccc4C(F)(F)F)nn23)ccn1 [Compound 540] |
| A (EC1.5<1 μM) | ≥ 350 |  |  | COc1nccc(NC(=O)c2c(C)nc3c(C)cc(-c4ccccc4C(F)(F)F)nn23)n1 [Compound 543] |
| A (EC1.5<1 μM) | ≥ 350 |  |  | Cc1cc(-c2ccccc2C(F)(F)F)nn2c(C(=O)Nc3cccc(N4CC5(COC5)C4)n3)cnc12 [Compound 546] |
| A (EC1.5<1 μM) | ≥ 350 |  |  | Cc1nn2ccc(-c3ccccc3C(F)(F)F)nc2c1C(=O)Nc1ccncn1 [Compound 547] |
| A (EC1.5<1 μM) | ≥ 350 |  |  | Cc1cc(NC(=O)c2cnc3ccc(-c4ccccc4C(F)(F)F)nn23)cc(OC[C@H](O)CO)n1 [Compound 557] |
| A (EC1.5<1 μM) | ≥ 350 |  |  | Cc1nn2ccc(-c3ccccc3C(F)(F)F)nc2c1C(=O)Nc1ccncc1 [Compound 560] |
| C (EC1.5>25 μM) | < 350 |  |  | Cc1nn2ccc(-c3ccccc3C(F)(F)F)nc2c1NC(=O)c1ccncc1 [Compound 569] |
| B (EC1.5 1-25 μM) | < 350 |  |  | Cc1nn2ccc(-c3ccccc3C(F)(F)F)nc2c1NC(=O)c1ncccn1 [Compound 570] |
| C (EC1.5>25 μM) | < 350 |  |  | COc1cccc(C(=O)Nc2c(C)nn3ccc(-c4ccccc4C(F)(F)F)nc23)n1 [Compound 576] |
| A (EC1.5<1 μM) | ≥ 350 |  |  | Cc1cc(-c2ccccc2C(F)(F)F)nn2c(C(=O)Nc3ccnc(OC4CCOCC4)n3)cnc12 [Compound 587] |
| B (EC1.5 1-25 μM) | < 350 |  |  | Cc1nc(NC(=O)c2cnc3c(C)cc(-c4ccccc4C(F)(F)F)nn23)sc1C [Compound 588] |
| A (EC1.5<1 μM) | ≥ 350 |  |  | Cc1nc2c(C)cc(-c3ccccc3C(F)(F)F)nn2c1C(=O)Nc1ccnc(OC2CCOCC2)n1 [Compound 593] |
| A (EC1.5<1 μM) | < 350 |  |  | COc1nccnc1NC(=O)c1cnc2c(C)cc(-c3ccccc3C(F)(F)F)nn12 [Compound 595] |
| A (EC1.5<1 μM) | ≥ 350 |  |  | CCOc1nccc(NC(=O)c2cnc3c(C)cc(-c4ccccc4C(F)(F)F)nn23)n1 [Compound 596] |
|  |  | A (EC1.5<1 μM) | ≥ 350 | Cc1cc(-c2ccccc2C(F)(F)F)nn2c(C(=O)Nc3ccnc(O[C@H]4CCOC4)n3)cnc12 [Compound 601] |
|  |  | A (EC1.5<1 μM) | ≥ 350 | COc1cc(NC(=O)c2c(C)nc3ccc(-c4ccccc4C(F)(F)F)nn23)ncn1 [Compound 602] |
|  |  | A (EC1.5<1 μM) | ≥ 350 | Cc1cc(NC(=O)c2cnn3ccc(-c4ccccc4C(F)(F)F)nc23)ccn1 [Compound 619] |
|  |  | B (EC1.5 1-25 μM) | < 350 | Cc1nccc(NC(=O)c2cnn3ccc(-c4ccccc4C(F)(F)F)nc23)c1C [Compound 620] |

— US9957271B2, “Substituted bicyclic aza-heterocycles and analogues as sirtuin modulators” (GlaxoSmithKline, LLC, priority 2012, dated 2018)
